Results published in patent publication US20230146699A1, “EDTA System for Reducing Browning in Mycohide Materials” (MycoWorks, Inc., priority 2021, published 2023).

System: mycohide sheets (mycelium crusts); browning by polyphenol oxidases (PPOs)
Assay: Visual assessment of browning reduction in mycohide (mycelium) sheets/crusts treated with chelating agent
Conditions: for reduction of surface browning (FIGS. 5-6): 1 mM and 5 mM chelator, plasticized mycohide, dried samples, 15% ALE fatliquor dip, EDTA compared with EGTA
Procedure: In some embodiments, full sized cotton sheets are treated as defined by four groups: 1) plasticization without any treatment, 2) EDTA treatment only after harvesting sheets (5 mM EDTA 14 in water added on top of mycelia layer after harvest and gently massaged; then plasticize this section in glycerin/water solution), 3) EDTA treatment only during plasticization (plasticize in glycerin/water solution 40%/60% glycerin to water with EDTA at 5 mM), and/or 4) EDTA treatment on both harvested sheets and during plasticization (see above for conditions).

Compound | reduction of browning, crusts after fatliquoring, wet state (FIG. 9) (1 mM EDTA in water, 70 C for 0.5 hour first, vs control (no EDTA)) | reduction of surface browning (FIGS. 5-6) | reduction of browning, crusts after fatliquoring, wet state (FIG. 9) (5 mM EDTA, 70 C heating step, vs 1 mM EDTA) | reduction of browning, crusts after fatliquoring, dry state (FIG. 10) (5 mM vs 1 mM EDTA, with or without 70 C (0.5 hour) heating step) | color uniformity of mycelium sheets (EDTA treated sheets vs heat treatment with or without EDTA (FIGS. 16-18)) | browning after EDTA added at different process steps (FIG. 20A, 20B) (full sized cotton sheets, 5 mM EDTA and 16 mM NaOH after harvest and/or during plasticization, varied fat liquor solution conditions) | optimum concentration to achieve browning reduction (mycelium sheets, concentrations of EDTA and EGTA optimized) [mM] | effect of adding EDTA during tanning (D&S) (sheets previously treated with EDTA during harvest or plasticization (FIG. 18A, 18B))
O=C(O)CN(CCN(CC(=O)O)CC(=O)O)CC(=O)O [EDTA, ethylenediaminetetraacetic acid] | more effective at reducing browning than a control group | achieves greater reductions in browning | even greater reductions in browning | not more effective than a lower concentration of EDTA at reducing browning | best color uniformity | observed decrease in browning | 5 | added whitening effect
O=C(O)CN(CCOCCOCCN(CC(=O)O)CC(=O)O)CC(=O)O [EGTA, egtazic acid] | – | may be effectively applied | – | – | – | – | – | –
